Results reported in US20180353501A1 (Arvinas, Inc., priority 2017, published 2018).

Columns and labels:
[1] = target: T1, His-p38α:PROTAC:GST-VBC ternary complex (Homo sapiens, UniProt P40337+Q16539); experiment: AlphaLISA ternary complex assay; format: binding; conditions: increasing PROTAC concentrations; VBC and p38α 150 nM
T1 construct: encodes a region spanning amino acids 2-360 of the human p38α kinase; made in house; host or cells: E. coli (BL21-CodonPlus(DE3)-RIPL for p38α; BL21(DE3) for GST-VBC)
Experimental: FIGS. 14A, 14B, and 14C. p38α selectivity is discriminated by ternary complex formation. (A) Only p38α incubated in the presence of exemplary compound 50 can be immunoprecipitated with GST-tagged VHL/EloB/EloC (VBC). Immobilized VBC was used as a bait to trap purified p38α in the presence of vehicle (DMSO), compound 50, or compound 46 (represented in micromolar concentrations). The rightmost lane represents a 1:25 dilution of initial input protein used in each pull-down. (B) Proximity-based AlphaLISA assay detects significant p38α:compound 50:VHL ternary complex, but no p38α:compound 46:VHL ternary complex. His-p38α and GST-VBC were incubated in the presence of increasing concentrations of compound 50 and compound 46 and the extent of ternary complex formation was assessed by excitation with incident light with 1=680 nm and capture of the emission light at 1=615 nm. Error bars represent the SD from quadruplicate experiments. […] FLAGimmunoprecipitated lysates were separated by SDS-PAGE and assessed via western blots detecting HA (Ub). […]
Following this logic, to the present disclosure seeks to describe the selectivity of exemplary compound 50 for p38α at the ternary complex level through the use of an in vitro ternary complex pull-down assay. […] Similarly, exemplary PROTACs 46 and 50 were evaluated in a proximity-based luminescence assay (AlphaLISA) to detect ternary complex formation. […]

[2] = target: T2, FLAG-p38δ (Homo sapiens, UniProt O15264); experiment: TUBE1 immunoprecipitation of polyubiquitinated p38δ, HeLa cells; format: cell-based; conditions: 1 μM, 3 hours
T2 construct: expressed in transfected cells; host or cells: HeLa cells, transient transfection with Lipofectamine 2000
T2 sequence (O15264 1-365): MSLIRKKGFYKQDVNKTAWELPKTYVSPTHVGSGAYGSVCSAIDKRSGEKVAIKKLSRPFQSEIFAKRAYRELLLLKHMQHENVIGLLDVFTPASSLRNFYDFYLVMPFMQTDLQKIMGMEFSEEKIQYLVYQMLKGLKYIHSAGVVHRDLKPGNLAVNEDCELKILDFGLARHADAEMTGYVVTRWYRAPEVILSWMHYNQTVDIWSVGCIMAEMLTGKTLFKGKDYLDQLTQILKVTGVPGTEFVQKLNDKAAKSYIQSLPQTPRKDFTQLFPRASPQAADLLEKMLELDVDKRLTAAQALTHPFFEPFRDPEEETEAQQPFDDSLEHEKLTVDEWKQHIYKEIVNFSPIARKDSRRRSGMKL
Experimental: FIG. 18. Exemplary compound 46 induces polyubiquitination of p38δ. (A) HeLa cells were co-transfected with HA-Ub and FLAG p38δ and treated with vehicle (DMSO), 1 μM of compound 50, or 1 μM of compound 46 for 3 hours. Lysates were immunoprecipitated with tandem ubiquitin binding entity (TUBE1) agarose beads and assessed by western blots detecting FLAG (p38δ). TUBE1 binds tetra ubiquitin chains with high affinity, thereby enriching for polyubiquitinated proteins. In this assay, HA (Ub) serves as an immunoprecipitation control for poly-Ub TUBE1 enrichment.
Based on these exemplary compound 50-induced and exemplary compound 46-induced ternary complex affinity differences, both in vitro and in cells, whether they were predictive of PROTAC-induced p38δ cellular ubiquitination was examined.
TUBE1 immunoprecipitation experiments were carried out exactly as described above, except for the fact that 1 mg of normalized HeLa lysate was loaded onto 20 μL TUBE1 agarose (LifeSensors) resin per sample.

[3] = target: T3, MAK (Homo sapiens, UniProt P20794); experiment: KINOMEscan in vitro kinase binding; conditions: screened at 1000 nM; lower number = stronger binding
T3 construct: purchased DiscoverRx Corporation (KINOMEscan platform, service)
Experimental: In Vitro Kinase Binding Affinity Determination for Example 1 and Example 2.
(§1) PROTAC in vitro binding affinities (Kd) to c-Met was determined using the KINOMEscan™ platform (DiscoverRx Corporation). The compounds were solubilized in DMSO and sent to DiscoverRx Corporation as 10 μM stock solutions.
Example 1 and Example 2 were screened at a 1000 nM concentration, and the results of the binding interactions are reported in “% Ctrl”, where a lower number indicates stronger binding. % Ctrl=[(test compound signal−positive control signal)/(negative control signal−positive control signal)]×100, wherein the negative control was DMSO.

[4] = target: T4, MET (Y1235D) (Homo sapiens, UniProt P08581, Y1235D); experiment: KINOMEscan in vitro kinase binding; conditions: screened at 1000 nM; lower number = stronger binding
T4 construct: purchased DiscoverRx Corporation (KINOMEscan platform, service)
Experimental: as §1

[5] = target: T5, MET (M1250T) (Homo sapiens, UniProt P08581, M1250T); experiment: KINOMEscan in vitro kinase binding; conditions: screened at 1000 nM; lower number = stronger binding
T5 construct: purchased DiscoverRx Corporation (KINOMEscan platform, service)
Experimental: as §1

[6] = target: T6, MET (Homo sapiens, UniProt P08581); experiment: KINOMEscan in vitro kinase binding; conditions: screened at 1000 nM
T6 construct: purchased DiscoverRx Corporation (KINOMEscan platform, service)
Experimental: as §1

T1 sequence (Q16539 2-360 limits assumed): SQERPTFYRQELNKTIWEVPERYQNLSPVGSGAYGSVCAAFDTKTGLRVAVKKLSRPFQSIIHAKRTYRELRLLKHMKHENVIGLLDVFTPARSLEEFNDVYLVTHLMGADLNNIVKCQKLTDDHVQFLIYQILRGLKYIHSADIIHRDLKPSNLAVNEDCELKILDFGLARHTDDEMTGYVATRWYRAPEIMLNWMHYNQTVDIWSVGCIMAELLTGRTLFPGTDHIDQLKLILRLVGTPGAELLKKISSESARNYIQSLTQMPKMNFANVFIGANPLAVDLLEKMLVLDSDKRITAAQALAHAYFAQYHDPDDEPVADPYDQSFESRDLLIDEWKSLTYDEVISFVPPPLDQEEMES
T1 sequence (P40337 whole entry, the tested form may be a part): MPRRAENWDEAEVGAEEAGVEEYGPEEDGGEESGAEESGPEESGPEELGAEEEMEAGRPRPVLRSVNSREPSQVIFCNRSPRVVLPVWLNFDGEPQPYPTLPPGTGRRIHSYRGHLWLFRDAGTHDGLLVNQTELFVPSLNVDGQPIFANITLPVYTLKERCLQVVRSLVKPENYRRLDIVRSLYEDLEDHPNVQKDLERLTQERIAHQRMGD
T1 sequence (Q15370 whole entry partner, the tested form may be a part): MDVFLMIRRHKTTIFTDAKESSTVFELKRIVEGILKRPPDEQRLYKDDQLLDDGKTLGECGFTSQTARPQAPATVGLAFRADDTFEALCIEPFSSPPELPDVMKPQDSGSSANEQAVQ
T1 sequence (Q15369 whole entry partner, the tested form may be a part): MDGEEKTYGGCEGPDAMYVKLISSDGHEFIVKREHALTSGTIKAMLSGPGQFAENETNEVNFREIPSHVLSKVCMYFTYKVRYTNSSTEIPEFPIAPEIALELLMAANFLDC
T3 sequence (P20794 whole entry): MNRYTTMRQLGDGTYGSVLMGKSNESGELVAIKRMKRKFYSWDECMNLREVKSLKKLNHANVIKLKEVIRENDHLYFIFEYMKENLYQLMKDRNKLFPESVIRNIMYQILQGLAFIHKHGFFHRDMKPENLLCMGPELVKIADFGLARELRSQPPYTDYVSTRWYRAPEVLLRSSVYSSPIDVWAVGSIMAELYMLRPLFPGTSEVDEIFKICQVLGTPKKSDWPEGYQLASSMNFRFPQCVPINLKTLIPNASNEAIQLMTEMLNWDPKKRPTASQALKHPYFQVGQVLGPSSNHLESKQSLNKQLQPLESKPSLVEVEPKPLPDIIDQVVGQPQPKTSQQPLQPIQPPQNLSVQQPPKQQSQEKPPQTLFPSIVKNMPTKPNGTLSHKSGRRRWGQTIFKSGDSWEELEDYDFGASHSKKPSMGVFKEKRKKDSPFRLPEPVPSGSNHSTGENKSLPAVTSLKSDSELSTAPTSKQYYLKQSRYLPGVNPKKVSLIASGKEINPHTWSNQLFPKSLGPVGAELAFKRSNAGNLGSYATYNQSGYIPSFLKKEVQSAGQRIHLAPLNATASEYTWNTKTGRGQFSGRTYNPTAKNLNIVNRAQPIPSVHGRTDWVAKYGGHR

Structure (SMILES) | p38α:PROTAC:VHL ternary complex formation (AlphaLISA) [1] | TUBE1-reactivity (poly-Ub p38δ) [2] | % Ctrl [3] [% Ctrl] | % Ctrl [4] [% Ctrl] | % Ctrl [5] [% Ctrl] | binding to MET (in words) [6] | % Ctrl ([6]; lower number = stronger binding) [% Ctrl]
COc1cc2c(Oc3ccc(NC(=O)C4(C(=O)Nc5ccc(F)cc5)CC4)cc3F)ccnc2cc1OCCOCCOCCOc1cc(-c2scnc2C)ccc1CNC(=O)[C@@H]1C[C@@H](O)CN1C(=O)[C@H](C(C)C)N1Cc2ccccc2C1=O [compound 46] | no such ternary species is detectable | increased TUBE1-reactivity | – | – | – | – | –
COc1cc2c(Oc3ccc(NC(=O)C4(C(=O)Nc5ccc(F)cc5)CC4)cc3F)ccnc2cc1OCCCCOCCCCOCC(=O)N[C@H](C(=O)N1C[C@H](O)C[C@H]1C(=O)NCc1ccc(-c2scnc2C)cc1)C(C)(C)C [compound 50, N-(3-fluoro-4-((7-(4-(4-(2-(((S)-1-((2S,4R)-4-hydroxy-2-((4-(4-methylthiazol-5-yl)benzyl)carbamoyl)pyrrolidin-1-yl)-3,3-dimethyl-1-oxobutan-2-yl)amino)-2-oxoethoxy)butoxy)buto-xy)-6-methoxyquinolin-4-yl)oxy)phenyl)-N-(4-fluorophenyl)cyclopropane-1,1-dicarboxa-mide] | displays a ternary VHL:PROTAC:p38α complex | – | – | – | – | – | –
COc1cc2c(Oc3ccc(NC(=O)C4(C(=O)Nc5ccc(F)cc5)CC4)cc3F)ccnc2cc1OCCCOCCCOCCC(=O)N[C@H](C(=O)N1C[C@H](O)C[C@H]1C(=O)NCc1ccc(-c2scnc2C)cc1)C(C)(C)C [Example 1] | – | – | 92 | 8.2 | 6.0 | strong binding to MET | 0.75
